The source of these data is patent publication US20060276460A1, “Use of piperazine phenothiazine derivatives in the manufacture of a medicament with neuroprotector and/or neurotrophic effects on cns and/or pns” (priority 2003, published 2006).

Each structure is given as a SMILES string.

Experiment [1] relates to spinal cord motoneuron cell culture. The experiment in a line: Neuronal survival and proliferation of spinal cord motoneuron cell culture. In kind it is cell-based, Wistar rats. Particulars: 50, 100, 250 nmol/l; counted at 2-120 hours; compared to cultures with BDNF alone.
Description: In vitro studies were first conducted on spinal cord motoneurons which are involved in peripheral neuropathy diseases as for example amyotrophic lateral sclerose (ALS) according to protocols described by Martinou J. C., Martinou I., Kato A. C. in Cholinergic differentiation factor (CDF/LIF) promotes survival of isolated rat embryonic motoneurons in vitro.
Cells cultures are incubated with different Fluphenazine N-Mustard dihydrochloride concentrations: 50, 100, 250 nmol/l.
Neuronal survival is then monitored at different time points; 2, 24, 48, 72, 96, 120 hours by counting the number of cells under microscope.
the percentage of neuronal survival obtained when cells cultures are incubated with flufenazine is compared to cell cultures incubated alone only with 50 microgram's of brain derived neurotrophic factor (BDNF).
The next experiment has as its system mesencephalic neurons. Particulars: 250 nmol/l. The procedure:
Cortical neurons are involved in Alzheimer's disease and also in mesencephale neurons or dopaminergic neurons which are themselves involved in Parkinson's disease. (see also protocol described by Y. Mitsumotol, A. Watanabe, T. Miyauchi, F. Jimma, and T. Moriizumi in Stimulation of the regrowth of MPP+/damaged dopaminergic fibers by the treatment of mesencephalic cultures with basigin; J Neural Transm (2001) 108: 1127-1134).
The neuroprotective activity is assessed on MPP+ induced mesencephalic neuron loss with flufenazine concentration of 250 nmol/l
The cells are intoxicated by 2 micromol of MPP+ as neurotoxic during 24 h. The cell culture is then treated with 250 nm/l of flufenazine.
The percentage of mesencephalic neuronal survival obtained when intoxicated cells cultures are incubated with flufenazine is compared to cell cultures without flufenazine.

The subject of a further experiment is SOD mice. As to the kind of experiment: Survival rate of SOD mice after oral administration. It counts as in vivo. The procedure:
In vivo studies were conducted on transgenic animals with ALS causing mutations, a model for neurodegenerative diseases according to protocols described by Gurney Me, Pu H, Chiu Ay, Dal Canto Mc, Polchow Cy, Alexander Dd, Caliendo J, Hentati A, Kwon Yw, Deng Hx, et al. in Motor neuron degeneration in mice that express a human Cu,Zn superoxide dismutase mutation. Science (1994) 264:1772-1775; and by Mohajeri Mh, Figlewicz Da, Bohn Mc in Selective loss of alpha motoneurons innervating the medial gastrocnemius muscle in a model of amyotrophic lateral sclerosis. Exp. Neurol. (1998) 150:329-336.
Mice are used at 4 months of age i.e. about 2 weeks before the appearance of the first symptoms.
They are genotyped for SOD1 gene using PCR method.
Animals are assigned into four groups to receive a daily oral administration of 1)saline as control, 2) 0.1 mg/kg, 3) 1 mg/kg, 4) 10 mg/kg of flufenazine, until death by weakness and paralysis occurs.
Survival rate was recorded on a daily basis.

The test system of experiment [2] is cortical neurons. The experiment in a line: Glutamic acid intoxication assay (LDH release). It counts as cell-based, Wistar rats. Here is the method: Further studies were conducted on cortical neurons intoxicated with glutamic acid according to the protocol described by Nilsen J. and Brinton R D in Impact of progestins on oestrogen-induced neuroprotection:synergy by progesterone and 19-norprogesterone and antagonism by medoxyprogesterone acetate. Endocrinology 143:205-212 2002.
(§1) Two types of primary neuronal cell cultures i.e. cortical and spinal cord neurons are isolated from 15-17 days old foetuses of female Wistar rats and cultured in neurobasal/B27 medium until cell differentiation.
The neuroprotective activity is assessed on glu-induced cortical neurons loss. The process of death is initiated by 10 min treatment of neuron cell cultures with neurotoxic concentration of glutamic acid at 100 micromol/l.
The ability of flufenazine to reverse the death process is achieved by subsequent exposure of cells to flufenazine concentrations of 100 and 200 nmol/l. The quantity of LDH released is used to estimate the degree of intoxication and the decrease of quantity released is proportional at cellular resistance to Glu neurotoxicity.
the percentage of neuronal survival obtained when intoxicated cells cultures are incubated with flufenazine is compared to cell cultures without flufenazine.
(In general: LDH in the medium is a marker of cell lysis.)

The subject of experiment [3] is cortical neurons. As to the kind of experiment: Neurotrophic assay, neurite outgrowth in cortical neuronal cultures. It counts as cell-based, Wistar rats. Particulars: 200 nmol/l; 24 h exposure.
Text: The neurotrophic effect i.e. the neurite outgrowth with flufenazine was investigated on both cortical and spinal cord neuronal cultures according to the protocol described by Lucius R, Sievers J. in Postnatal retinal ganglion cells in vitro: protection against reactive oxygen species (ROS)-induced axonal degeneration by cocultured astrocytes Brain Res Dec. 16, 1996;743(1-2):56-62.
as §1
The ability of flufenazine to induce neurite outgrowth is investigated both in cortical and spinal cord neuronal cultures after 24 h exposure to flufenazine.
The neurite length as well as the percentage of cells with neurites are quantified by careful microscopic inspection. On cortex neurons type, the results are depicted in FIG. 4; the cortex neurotrophic effect of flufenazine (200 nmol/l) is expressed as an increase of 30% on neurites length compared to the neurites length in the control cortex neurons

Take `OCCN1CCN(CCCN2c3ccccc3Sc3ccc(C(F)(F)F)cc32)CC1` [flufenazine, 4-[3-[2-(trifluoromethyl)-10H-phenothiazin-10-yl]propyl]-1-pyperazine-ethanol]: in experiment [1], the “percentage of neuronal survival” value was “increase regularly from 48 h until 120 h”. The “neurite expansion versus control neurons” value in the experiment with mesencephalic neurons is listed as “longer neurite expansion than in control neurons”. The “reversal of MPP+ induced neuronal loss” value in the experiment on mesencephalic neurons is on record as “reverses MPP+ induced neuronal loss to the same extent as Riluzole”. The “increase of TH positives cells” value with mesencephalic neurons (after 2 micromol MPP+ during 24 h, observed after 48 hours) worked out at 30%. Besides, the “survival of SOD mice compared to saline treated group” value with SOD mice (0.1 mg/kg daily oral) is “enhanced the survival”; with SOD mice (1 mg/kg daily oral), “enhanced the survival”; with SOD mice (10 mg/kg daily oral) it was “adverse effect and induced a leftward shift in the survival curve”. In addition, in the experiment on cortical neurons [2] (200 nmol/l, after 10 min glutamic acid 100 micromol/l, compared to cultures without flufenazine), the “increase of percentage of neuronal survival after glutamic acid intoxication” value is listed as 10%. In the experiment on cortical neurons [2] (no glutamic acid, FIG. 2 left part), the “effect on cell survival in the absence of neurotoxic compound” value is reported as “no or very slight effect”. Moreover, the “increase on neurites length compared to control cortex neurons” value in the experiment with cortical neurons [3] came out at 30%.
